pIC50: −log10 of the molar value.

The test has as its system IFNγ-Induced NO Production in RAW 264.7 cells. Description: Nitric Oxide Suppression Assay (suppression of IFNγ-induced NO production). It is filed as cell-based. As to conditions: RAW264.7; RAW 264.7 mouse macrophage cells, 20 ng/mL interferon gamma, Griess detection; single curve fit to mean data of n=2-3. As to the method:
RAW 264.7, a mouse macrophage cell line, was obtained from American Type Culture Collection (Manassas Va.) and maintained in the log phase of growth in Dulbecco's Modified Eagle's Medium (DMEM), 10% heat inactivated fetal calf serum and 100 units/mL antibiotic-antimycotic (AA). Cells were cultured and maintained in a humidified incubator at 37° C. under 5% CO2 and 95% air. Cells were sub-cultured every 3 days by scraping and were not used beyond passage 20. All cell culture supplies were obtained from Life Technologies (Grand Island, N.Y.).
RAW 264.7 cells were plated 1 day in advance of experiment at a concentration of 80,000 cells/well onto CellBIND® 96 well plates (Corning, N.Y.) in a total volume of 100 μL. The next day, pre-treat cells with compounds (from 3 μM to 0.3 nM serially diluted in a 10 point curve) from a 10× stock by adding 10 μL per well in complete DMEM media containing 10% fetal calf serum. The plates were centrifuged for 3 minutes at 400×g at room temperature followed by 2 hour incubation at 37° C. The cells were then incubated overnight at 37° C. with 10 μL of the insult, interferon gamma (R&D Systems, Minneapolis, Minn.), from a 10× stock for a final concentration of 20 ng/mL. The plates were centrifuged for 3 minutes at 400×g at room temperature followed by 18 hour incubation at 37° C. The following day, transfer 50 μL cell culture supernatant from each well into a clear bottom 96 well plate and follow the instructions from Promega's Griess Detection Kit #G2930 (Madison, Wis.) which involves the addition of 50 μL of the provided sulfanilamide solution for a 5-10 minute incubation at room temperature. Next add 50 μL of the provided N-1-napthylethylenediamine dihydrochloride (NED) solution for a 5-10 minute incubation at room temperature and protected from light. If any air bubbles were introduced into the well, the plates need to be centrifuged for 5 minutes at 400×g at room temperature to avoid interference with absorbance readings. The plates were read for absorbance within 30 minutes with a filter between 520 nm and 550 nm.
For the ability of compounds to suppress the increase in nitric oxide release, the percent maximal intensity of nitric oxide detected in each well was normalized to that induced by the peak value for 20 ng/mL of interferon gamma alone and plotted against the compound concentration to calculate IC50 values and to control for plate-to-plate variability. Concentration-response data were analyzed using GraphPad Prism (San Diego, Calif.); the IC50 values were derived from a single curve fit to the mean data of n=2-3, in duplicates.
All compounds were dissolved in dimethyl sulfoxide at 10 mM stock solutions and tested at a concentration that the dimethyl sulfoxide levels never exceeded 1%.
Take `CC1(C)C(=O)C(C#N)=C[C@]2(C)C3=CC(=O)[C@]4(O)[C@@H]5C[C@@](C)(C(=O)NC6CCCCC6)CC[C@]5(C)CC[C@@]4(C)[C@]3(C)CC[C@@H]12` [Example 21, (2S,4aS,6aS,6bR,8aR,12aS,14aS,14bR)-11-cyano-N-cyclohexyl-14a-hydroxy-2,4a,6a,6b,9,9,12a-heptamethyl-10,14-dioxo-1,2,3,4,4a,5,6,6a,6b,7,8,8a,9,10,12a,14,14a,14b-octadecahydropicene-2-carboxamide]: the pIC50 is 8.01. Consider `CC1(C)C(=O)C(C#N)=C[C@]2(C)C3=CC(=O)[C@]4(O)[C@@H]5C[C@@](C)(C(=O)NCc6ccco6)CC[C@]5(C)CC[C@@]4(C)[C@]3(C)CC[C@@H]12` [Example 26, (2S,4aS,6aS,6bR,8aR,12aS,14aS,14bR)-11-cyano-N-(2-furylmethyl)-14a-hydroxy-2,4a,6a,6b,9,9,12a-heptamethyl-10,14-dioxo-1,2,3,4,4a,5,6,6a,6b,7,8,8a,9,10,12a,14,14a,14b-octadecahydropicene-2-carboxamide], for which the negative logarithm of the IC50 (pIC50) was 7.99. For the compound `COC(=O)[C@]12CCC(C)(C)C[C@H]1[C@H]1C(=O)C=C3[C@@]4(C)C=C(C#N)C(=O)C(C)(C)[C@@H]4CC[C@@]3(C)[C@]1(C)CC2` [bardoxolone methyl, reference compound], the negative logarithm of the IC50 (pIC50) is 7.54. Turning to `COCC(COC)NC(=O)[C@@]1(C)CC[C@]2(C)CC[C@]3(C)[C@H](C(=O)C=C4[C@@]5(C)C=C(C#N)C(=O)C(C)(C)[C@@H]5CC[C@]43C)[C@@H]2C1` [Example 37, (2S,4aS,6aR,6bS,8aR,12aS,14aR,14bS)-11-cyano-N-(1,3-dimethoxypropan-2-yl)-2,4a,6a,6b,9,9,12a-heptamethyl-10,14-dioxo-1,2,3,4,4a,5,6,6a,6b,7,8,8a,9,10,12a,14,14a,14b-octadecahydropicene-2-carboxamide], the pIC50 is 7.80. For `CC1(C)C(=O)C(C#N)=C[C@]2(C)C3=CC(=O)[C@@H]4[C@@H]5C[C@@](C)(C(=O)NC6CCCCC6)CC[C@]5(C)CC[C@@]4(C)[C@]3(C)CC[C@@H]12` [Example 36, (2S,4aS,6aR,6bS,8aR,12aS,14aR,14bS)-11-cyano-N-cyclohexyl-2,4a,6a,6b,9,9,12a-heptamethyl-10,14-dioxo-1,2,3,4,4a,5,6,6a,6b,7,8,8a,9,10,12a,14,14a,14b-octadecahydropicene-2-carboxamide] the value was 6.85; for `CC1(C)C(=O)C(C#N)=C[C@]2(C)C3=CC(=O)[C@]4(O)[C@@H]5C[C@@](C)(C(=O)NCc6cnco6)CC[C@]5(C)CC[C@@]4(C)[C@]3(C)CC[C@@H]12` [Example 3, (2S,4aS,6aS,6bR,8aR,12aS,14aS,14bR)-11-cyano-14a-hydroxy-2,4a,6a,6b,9,9,12a-heptamethyl-N-(1,3-oxazol-5-ylmethyl)-10,14-dioxo-1,2,3,4,4a,5,6,6a,6b,7,8,8a,9,10,12a,14,14a,14b-octadecahydropicene-2-carboxamide], 7.84; for `Cc1ccccc1CNC(=O)[C@@]1(C)CC[C@]2(C)CC[C@@]3(C)[C@]4(C)CC[C@H]5C(C)(C)C(=O)C(C#N)=C[C@]5(C)C4=CC(=O)[C@]3(O)[C@@H]2C1` [Example 11, (2S,4aS,6aS,6bR,8aR,12aS,14aS,14bR)-11-cyano-14a-hydroxy-2,4a,6a,6b,9,9,12a-heptamethyl-N-(2-methylbenzyl)-10,14-dioxo-1,2,3,4,4a,5,6,6a,6b,7,8,8a,9,10,12a,14,14a,14b-octadecahydropicene-2-carboxamide], 6.85. The same measure for `COC(=O)[C@@]1(C)CC[C@]2(C)CC[C@]3(C)[C@H](C(=O)C=C4[C@@]5(C)C=C(C#N)C(=O)C(C)(C)[C@@H]5CC[C@]43C)[C@@H]2C1` [Example 2, (2S,4aS,6aR,6bS,8aR,12aS,14aR,14bS)-methyl 11-cyano-2,4a,6a,6b,9,9,12a-heptamethyl-10,14-dioxo-1,2,3,4,4a,5,6,6a,6b,7,8,8a,9,10,12a,14,14a,14b-octadecahydropicene-2-carboxylate]: 6.70; for `CC(C)(C)CNC(=O)[C@@]1(C)CC[C@]2(C)CC[C@@]3(C)[C@]4(C)CC[C@H]5C(C)(C)C(=O)C(C#N)=C[C@]5(C)C4=CC(=O)[C@]3(O)[C@@H]2C1` [Example 7, (2S,4aS,6aS,6bR,8aR,12aS,14aS,14bR)-11-cyano-N-(2,2-dimethylpropyl)-14a-hydroxy-2,4a,6a,6b,9,9,12a-heptamethyl-10,14-dioxo-1,2,3,4,4a,5,6,6a,6b,7,8,8a,9,10,12a,14,14a,14b-octadecahydropicene-2-carboxamide]: 7.65; for `CC1(C)C(=O)C(C#N)=C[C@]2(C)C3=CC(=O)[C@@H]4[C@@H]5C[C@@](C)(C(=O)NCc6ccco6)CC[C@]5(C)CC[C@@]4(C)[C@]3(C)CC[C@@H]12` [Example 35, (2S,4aS,6aR,6bS,8aR,12aS,14aR,14bS)-11-cyano-N-(2-furylmethyl)-2,4a,6a,6b,9,9,12a-heptamethyl-10,14-dioxo-1,2,3,4,4a,5,6,6a,6b,7,8,8a,9,10,12a,14,14a,14b-octadecahydropicene-2-carboxamide]: 7.86. `CC1(C)C(=O)C(C#N)=C[C@]2(C)C3=CC(=O)[C@]4(O)[C@@H]5C[C@@](C)(C(=O)NCc6ccccc6)CC[C@]5(C)CC[C@@]4(C)[C@]3(C)CC[C@@H]12` [Example 22, (2S,4aS,6aS,6bR,8aR,12aS,14aS,14bR)—N-benzyl-11-cyano-14a-hydroxy-2,4a,6a,6b,9,9,12a-heptamethyl-10,14-dioxo-1,2,3,4,4a,5,6,6a,6b,7,8,8a,9,10,12a,14,14a,14b-octadecahydropicene-2-carboxamide] gave a pIC50 of 7.57.

Source of the values: patent publication US20140073700A1, “[…] ACID DERIVATIVES AND METHODS OF USE THEREOF” (AbbVie Inc., priority 2012, published 2014).
